According to US11896615B2, “Immunotherapy methods and compositions involving tryptophan metabolic pathway modulators” (Juno Therapeutics, Inc., priority 2016, dated 2024):
“Also recorded” adds a separate entry of the source.

Experiments:
CD19.A549 cells = test: IDO1 expression in CD19.A549 cells after IFNγ stimulation (flow cytometry); type: cell-based, human
Description: (§1) A549 adenocarcinoma human alveolar basal epithelial cells transduced with human CD19 (CD19.A549 cells, which may also referred to as A549.CD19 cells) were assessed for expression of indoleamine-pyrrole 2,3-dioxygenase 1 (IDO1) following stimulation with interferon-gamma (IFNγ). CD19.A549 cells were stimulated with IFNγ for 24 or 48 hours and IDO1 levels were assessed by flow cytometry using an anti-IDO antibody. […] Increased IDO1 expression was not detected in other CD19^+ tumor cell lines in this assay, including JeKo-1, Daudi, Raji and Nalm-6 cells, following incubation with IFNγ under similar conditions.
CD19.A549 cells were cultured with various concentrations of recombinant human IFNγ.

[1] = tested on: JeKo-1, Daudi, Raji and Nalm-6 cells; test: IDO1 expression in other CD19+ tumor cell lines after IFNγ incubation; type: cell-based, human; details: incubation with IFNγ under similar conditions
Description: as §1

[2] = tested on: HS-5 human bone marrow stromal cells; test: IDO1 expression in HS-5 bone marrow stromal cells after IFNγ; type: cell-based; details: 20 ng/mL recombinant human IFNγ, 24 hours
Description: Expression level of Indoleamine-Pyrrole 2,3-Dioxygenase 1 (IDO1) was determined in bone marrow stromal cells upon stimulation by interferon-gamma (IFNγ) or with co-incubation with CAR-expressing T cells. Bone marrow stromal cells are exemplary of bystander cells, e.g., non-tumor cells, present in the TME.
HS-5 human bone marrow stromal cells were stimulated with 20 ng/mL recombinant human IFNγ for 24 hours.

dendritic cells = test: IDO1 expression in dendritic cells after IFNγ and/or LPS stimulation; type: cell-based; details: dendritic cells (DC), 24 hours stimulation
Description: To assess whether myeloid cells present in the TME, including tumor-associated macrophages and dendritic cells, can be induced to express IDO1, the expression level of IDO1 in dendritic cells and macrophages upon stimulation by interferon-gamma (IFNγ) or lipopolysaccharide (LPS) was determined by flow cytometry. Dendritic cells were subject to monoculture with GM-CSF and interleukin-4 (IL-4), and macrophages were subject to monoculture with M-CSF, for 6 days. After monoculture, the cells were stimulated with IFNγ and/or LPS for 24 hours, and IDO1 expression was determined by flow cytometry.

[3] = tested on: anti-CD19 CAR-expressing T cells; test: Effect of tryptophan metabolites on CAR T proliferation with IDO1- target cells; type: cell-based, human; details: 96 hours; for CAR T cell proliferation: CD19.Daudi target cells, 0 to 100 μM; for CAR T cell numbers (CD3+ cells per well): CD19.K562 target cells, 6.25 to 100 μM
Description: Cells were stained for surface expression of CD4 and CD8. Proliferation of T cell populations was determined by flow cytometry, based on the extent of dilution of the CellTrace™ violet dye. […] The number of CD3^+ cells per well was determined using CountBright beads.

[4] = tested on: anti-CD19 CAR-expressing T cells; test: Cytokine release in co-culture supernatants; type: cell-based, human; details: for GM-CSF level in supernatant / IFNγ level in supernatant / TNFα level in supernatant: epacadostat 10, 100 or 1000 nM or supplemental tryptophan, compared to no addition; for IL-2 levels in supernatant: for up to 72 hours, levels decreased at 96 hours
[5] = tested on: CD4+ and CD8+ CAR-expressing T cells; test: CD25 surface expression on CD4+ and CD8+ CAR-expressing T cells (flow cytometry); type: cell-based, human
[6] = tested on: anti-CD19 CAR-expressing T cells; test: CAR T cell counts and proliferation with IDO1 inhibitor or supplemental tryptophan in co-culture with CD19.A549; type: cell-based, human; details: 5 μg/mL added every 24 hours, 96 hours with IDO1+ A549.CD19, compared to no treatment
Description: Proliferation was assessed by flow cytometry, and CAR+ T cell count in each well was determined.

CAR-expressing T cells = test: CAR T function in tryptophan-depleted media with supplemental tryptophan; type: cell-based, human
Description: Effects of tryptophan starvation on antigen-induced function of CAR-T cells were assessed. CAR-expressing T cells labeled with CellTrace™ violet were co-cultured with target cells (K562 human myelogenous leukemia target cells transduced with CD19 (CD19.K562)) that had been observed not to induce IDO1-expression, in tryptophan-depleted media, with or without the addition of various concentrations of supplemental tryptophan. Tryptophan-containing media was used as a control (Trp Control). Target cell count and proliferation (assessed by flow cytometry via CTV dye dilution; MFI=mean fluorescence intensity).
A similar study was carried out to assess effects of tryptophan-starvation, but in which CAR-mediated function was induced using an agonistic anti-idiotype antibody specific for the CAR as opposed to antigen-expressing target cells. Anti-CD19 CAR-expressing cells, generated substantially as described in Example 1, were stimulated for 96 hours using plate-bound anti-idiotypic agonistic antibody, in tryptophan-depleted media, alone or supplemented with various concentrations of tryptophan. The number of CD3^+ cells per well was determined. Representative results from exemplary studies are shown in FIG. 15D and FIG. 15E (results from three different donors). […]

[7] = tested on: anti-CD19 CAR-expressing cells; test: Intracellular cytokines after re-exposure to antigen following tryptophan starvation; type: cell-based, human; details: tryptophan supplementation in the subsequent culture
Description: Effect of tryptophan starvation on CAR-T function (proliferation, cytokine production) following subsequent re-exposure to antigen was assessed. […] The cells were harvested, counted and re-cultured with fresh CD19-expressing A549 target cells (CD19.A549) in tryptophan-depleted media (media from the “no tx” cultures at 96 hours) with or without supplemented tryptophan. Intracellular levels of interferon-gamma (IFNγ) and interlekukin-2 (IL-2) were assessed by intracellular cytokine staining, and the percentage of CD4+ or CD8+ cells deemed positive for the given intracellular cytokine production was determined.

[8] = tested on: anti-CD19 CAR-expressing T cells; test: Recovery from tryptophan starvation; type: cell-based, human; details: supplemental tryptophan added after starvation, out to 96 hours
Description: Anti-CD19 CAR-expressing T cells, generated as described in Example 1, were cultured in tryptophan starvation conditions (chemically defined tryptophan-free media) for 24, 48, 72 or 96 hours (24, 48, 72 or 96 hr Trp starv.). After tryptophan starvation for the indicated time, supplemental tryptophan was added to the cultures. The cells then were cultured in the presence of tryptophan until the cells were harvested at 24, 48, 72 or 96 hours. As a control, reflecting tryptophan sufficient conditions, cells were cultured in tryptophan-sufficient media for each respective time period (complete media). The number of CD3^+ cells per well was assessed. Intracellular production of interferon-gamma (IFNγ) and tumor necrosis factor alpha (TNFα) was assessed by intracellular cytokine staining, and the percentage of CD4+ or CD8+ cells positive for cytokine accumulation was determined.

[9] = tested on: anti-CD19 CAR-expressing T cells; test: Proliferation of anti-CD19 CAR T cells co-cultured with IDO1+ CD19.A549 cells (CellTrace violet dilution, bead counts, microscopy); type: cell-based, human
Description: Cells were stained for expression of CD4 and CD8 and proliferation of T cell populations determined by flow cytometry, based on the extent of dilution of the CellTrace™ Violet dye.
Similar methods were used to assess proliferation of anti-CD19 CAR-expressing T cells generated from three different healthy donors following co-culture with CD19-expressing A549 target cells (CD19.A549).
The number of CAR T cells in each well was determined using CountBright Absolute Counting beads.
(§2) Similar methods were used to assess the effect of the IDO1 inhibitor on proliferation of CAR-expressing T cells following co-culture of anti-CD19 CAR-expressing cells with either IDO1^+ cells (A549.CD19) or IDO1^− cells (K562.CD19). […] The average number of CAR T cell divisions was calculated based on peaks in dye dilution, and proliferation of CD4^+ and CD8^+ subsets was compared.
Cells were visualized at 72 hours and 120 hours.

[10] = tested on: anti-CD19 CAR-expressing T cells; test: Proliferation of anti-CD19 CAR T cells co-cultured with IDO1- target cells (CD19.Daudi, K562.CD19); type: cell-based, human; details: co-culture with IDO1- cells, various concentrations
Description: as §2

[11] = tested on: anti-ROR1 CAR-expressing T cells; test: Proliferation of anti-ROR1 CAR T cells co-cultured with CD19.A549 cells; type: cell-based, human; details: 250 nM, E:T 3:1, 96 hours, compared to absence of inhibitor
Description: Similar methods were used to assess the effect of the IDO1 inhibitor on proliferation of anti-ROR1 CAR-expressing T cells cultured in the presence of antigen-expressing target cells.

[12] = tested on: anti-CD19 CAR-expressing T cells; test: Sustained expansion of anti-CD19 CAR T cells (% confluency over time); type: cell-based, human
Description: Expansion of anti-CD19 expressing CAR cells following co-culture with A549 adenocarcinoma human alveolar basal epithelial cells transduced with human CD19 (CD19.A549 cells) was assessed for over 10 days. […] Expansion was assessed based on % confluency in the culture as determined over time. […] The IDO1 inhibitor-promoted increase in expansion was sustained for more than 10 days in culture. The results were consistent with a conclusion that IDO-upregulation and/or IDO-dependent signaling can occur or be promoted following CAR-T antigen-specific activation and result in dampening of proliferation of the CAR-T cells, e.g., over a 5- or 10-day period, and that inhibition of IDO can in some contexts rescue such inhibition.

CD19.A549 = test: Cytolytic activity of anti-CD19 CAR T cells (Incucyte, NucRed-labeled targets); type: cell-based, human; details: 0 to 1000 nM, 0.25:1 E:T, up to approximately 340 hours
Description: Lysis of target cells was measured over time using the Incucyte quantitative cell analysis system (Essen BioScience) by assessing the staining intensity of cells for the NucRed dye.

CAR T cells = test: CAR T cell proliferation in the presence of IDO1+ HS-5 bystander cells; type: cell-based, human; details: with or without HS-5 cells, 96 hours, various concentrations
Description: Proliferation of CAR T cells in the presence of IDO1-expressing bone marrow stromal cells or an IDO1 inhibitor was determined.

[13] = supplemental tryptophan or 100 nM or 1000 nM epacadostat, co-culture with CD19.A549

With “IFNγ: interferon-gamma (IFNγ), recombinant human” the IDO1 expression (CD19.A549 cells; IFNγ stimulation for 24 and 48 hours, compared to unstimulated cells) was “increased expression of endogenous IDO1”, the “IDO1 expression (MFI)” value (CD19.A549 cells; various concentrations of recombinant human IFNγ) was “dose-responsive increase in IDO1 expression” and the IDO1 expression [1] was “not detected”. The IDO1 expression [2] was “increase of IDO1 expression” and the IDO1 expression (dendritic cells) was “induced IDO1 expression”.
For `Nc1c(O)cccc1C(=O)O` [3-HAA, 3-hydroxyanthranilic acid], the “CAR T cell proliferation” value [3] was “did not inhibit CAR T cell proliferation” and the “CAR T cell numbers (CD3+ cells per well)” value [3] was “did not substantially affect CAR T cell numbers”.
`Nc1ccccc1C(=O)C[C@H](N)C(=O)O` [L-Kynurenine] was tested, and the “CAR T cell proliferation” value [3] was “did not inhibit CAR T cell proliferation” and the “CAR T cell numbers (CD3+ cells per well)” value [3] was “did not substantially affect CAR T cell numbers”.
`N[C@@H](Cc1c[nH]c2ccccc12)C(=O)O` [tryptophan] was tested, and the “GM-CSF level in supernatant” value [4] was “increased level”, the “IFNγ level in supernatant” value [4] was “increased level” and the “TNFα level in supernatant” value [4] was “increased level”. For the same compound, the “IL-2 levels in supernatant” value [4] was “increased”, the “CD25 surface expression (MFI)” value [5, 13] was “reduced” and the “proliferation of CAR-T cells” value [6] was “restored proliferation of the CAR-T cells”. For the same compound, the “inhibitory effect of tryptophan starvation on antigen-specific function of CAR T cells” value (CAR-expressing T cells; CD19.K562 target cells, tryptophan-depleted media) was “reversed”, the “inhibition of CAR-mediated function by tryptophan starvation (CD3+ cells per well)” value (CAR-expressing T cells; plate-bound anti-idiotypic agonistic antibody, 96 hours) was “restored” and the “reduction in cytokine production (IFNγ, IL-2) after re-encounter with target cells” value [7] was “partially restored”. The “proliferative capacity after tryptophan starvation” value [8] was “did not completely restore proliferative capacity”.
With `NS(=O)(=O)NCCNc1nonc1C(=NO)Nc1ccc(F)c(Br)c1` [epacadostat, 4-({2-[(aminosulfonyl)amino]ethyl}amino)-N-(3-bromo-4-fluorophenyl)-N′-hydroxy-1,2,5-oxadiazole-3-carboximidamide] the “number of CAR T cells per well” value ([9]; 250 nM, 96 hours, three donors, compared to absence of inhibitor) was “higher number CAR T cells”, the “CAR-expressing T cells visualized by microscopy” value ([9]; 1 μM, 120 hours, 1:1 E:T, compared to no inhibitor) was “large increase in CAR-expressing T cells” and the EC50 ([9]; Homo sapiens, co-culture with A549 cells (IDO1+), 1:1 E:T, read-out: estimated EC50 (CAR T proliferation)) was roughly 223 nM. The “proliferation of CD4+ and CD8+ CAR-expressing T cells” value ([9]; co-culture with IDO1+ CD19.A549 cells, 96 hours, various concentrations) was “dose-dependent increase in proliferation; also recorded: increased proliferation”, the “proliferation of CD4+ and CD8+ CAR-expressing T cells” value [10] was “not when co-cultured with IDO1^− cells (Daudi)” and the “number of CAR T cells” value [11] was “higher number of CAR T cells”. For the same compound, the “expansion of CAR-expressing T cells (% confluency)” value ([12]; 0 to 1000 nM, up to approximately 340 hours) was “increasing expansion of CAR-expressing T cells”, the “duration of inhibitor-promoted increase in expansion” value ([12]; in culture with CD19.A549) was “over 10 days” and the TNFα production ([4]; 48 hours, 1:1 E:T with CD19.A549, various concentrations) was “increased TNFα production”. The “GM-CSF level in supernatant” value [4] was “increased level”, the “IFNγ level in supernatant” value [4] was “increased level” and the “TNFα level in supernatant” value [4] was “increased level”. The “IL-2 levels in supernatant” value [4] was “increased”, the “CD25 surface expression (MFI)” value ([5]; 96 hours co-culture with IDO1+ CD19.A549 cells, 1:1 E:T) was “reduced” and the CD25 surface expression ([5]; 96 hours co-culture with IDO1- CD19.Daudi cells) was “not affected”. The “CD25 surface expression (MFI)” value [5, 13] was “reduced”, the “NucRed dye intensity of target cells (AUC)” value (CD19.A549) was “dose-dependent reduction of NucRed dye intensity” and the “proliferation of CAR T cells” value (CAR T cells) was “not substantially affected”.
